Laboratory results reported in US20170176412A1, “METHOD FOR PREDICTING OPTION OF DEPRESSION TREATMENT DRUG” (Human Metabolome Technologies Inc., priority 2014, published 2017).

Legend:
[1] = system: blood PEA level of depressed patient; assay: Blood PEA level of depressed patients during continuous administration (Example 2); assay type: in vivo; conditions: for Blood PEA level Before administration: before administration in Example 1, patients with continuous administration; for Blood PEA level After continuous administration / Blood PEA level During continuous administration: continuous administration periods about 6 to 24 months
Method: Among the patients to whom the depression treatment drug was administered in Example 1, the patients who received continuous administration also after the period of Example 1 were investigated. The number of patients who received continuous administration of the SNRI was nine. On the other hand, the number of patients who received continuous administration of the SSRI was five. Although the continuous administration periods (including the administration period in Example 1) variably depended on the patients, they ranged from about 6 to 24 months. The blood PEA levels in the course of and after the end of the continuous administration of these patients were measured in the same procedure as in Example 1.
• t-test: Significant difference test of blood PEA level after continuous administration with respect to that before administration

[2] = system: blood PEA level of depressed patient; assay: Blood PEA level of depressed patients before and after administration of SNRI or SSRI (Example 1); assay type: in vivo; conditions: average value; for Blood PEA level After administration: after administration period of about 0.5 to 7 months; for Blood PEA level Before administration: baseline of the drug group, plasma, ion chromatography fluorescent detection
Method: After an informed consent was given to a patient who visited the clinic of the inventors, the patient's blood was collected. The blood PEA level was measured using an ion chromatography fluorescent detection method according to the following procedure. 50 μL of plasma and 450 μL of Milli-Q water were put in an Eppendorf tube and mixed by vortexing. The mixture was transferred to an ultrafiltration filter ([…] 5 kDa cut filter, Millipore Corporation), and subjected to centrifugal filtration (4° C., 9,100×g, 2 hours) until the solution in the filter disappeared. […] As subjects, 30 patients having the blood PEA levels ranging from 0.77 to 2.62 μM were employed. As a depression treatment drug, the SSRI or SNRT shown in Table 3 was administered to the patients. The blood PEA level after the administration was measured in the same procedure as before the administration. Although the administration periods variably depended on the patients, they ranged from about 0.5 to 7 months.

SMILES | Blood PEA level Before administration [1] [µM] | Blood PEA level After continuous administration [1] [µM] | Blood PEA level During continuous administration [1] [µM] | Blood PEA level After administration [2] [µM] | Blood PEA level Before administration [2] [µM]
CNCC[C@H](Oc1cccc2ccccc12)c1cccs1 [Duloxetine, duloxetine] | 1.11 | 1.82 | 1.47 | 1.46 | 1.10
CN(C)CCC[C@@]1(c2ccc(F)cc2)OCc2cc(C#N)ccc21 [Escitalopram, escitalopram] | – | 1.73 | – | 1.22 | –
CCN(CC)C(=O)C1(c2ccccc2)CC1CN (stereo not drawn) [Milnacipran, milnacipran] | 1.44 | 1.94 | 1.71 | 1.66 | 1.27
Fc1ccc([C@@H]2CCNC[C@H]2COc2ccc3c(c2)OCO3)cc1 [Paroxetine, paroxetine] | – | – | – | 1.21 | 1.42
CN[C@H]1CC[C@@H](c2ccc(Cl)c(Cl)c2)c2ccccc21 [Sertraline, sertraline] | 1.39 | 1.47 | – | 1.26 | 1.39
